Source: patent US20090105305A1, “Therapeutic Agents - 550” (AstraZeneca AB, priority 2006, published 2009)

molecular target: T1, human Fatty Acid Synthase (Homo sapiens, UniProt P49327); assay: Human FAS enzyme assay (decrease in NADPH fluorescence); type: biochemical; details: % inhibition at a concentration of 100 micromolar
T1 construct: made in house
Procedure, shortened: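 Readout: decrease in NADPH fluorescence (340 nm ex, 460 nm em) after 60 min at RT, background-subtracted against a read taken before substrate. Substrate mix contained 500 μM malonyl-CoA and 150 μM acetyl-CoA. It was added after 15 min enzyme (0.4 μg in-house human FAS)–compound–NADPH preincubation in Tris pH 7.5 buffer; % inhibition was fitted to IC50.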

T1 sequence (P49327 whole entry): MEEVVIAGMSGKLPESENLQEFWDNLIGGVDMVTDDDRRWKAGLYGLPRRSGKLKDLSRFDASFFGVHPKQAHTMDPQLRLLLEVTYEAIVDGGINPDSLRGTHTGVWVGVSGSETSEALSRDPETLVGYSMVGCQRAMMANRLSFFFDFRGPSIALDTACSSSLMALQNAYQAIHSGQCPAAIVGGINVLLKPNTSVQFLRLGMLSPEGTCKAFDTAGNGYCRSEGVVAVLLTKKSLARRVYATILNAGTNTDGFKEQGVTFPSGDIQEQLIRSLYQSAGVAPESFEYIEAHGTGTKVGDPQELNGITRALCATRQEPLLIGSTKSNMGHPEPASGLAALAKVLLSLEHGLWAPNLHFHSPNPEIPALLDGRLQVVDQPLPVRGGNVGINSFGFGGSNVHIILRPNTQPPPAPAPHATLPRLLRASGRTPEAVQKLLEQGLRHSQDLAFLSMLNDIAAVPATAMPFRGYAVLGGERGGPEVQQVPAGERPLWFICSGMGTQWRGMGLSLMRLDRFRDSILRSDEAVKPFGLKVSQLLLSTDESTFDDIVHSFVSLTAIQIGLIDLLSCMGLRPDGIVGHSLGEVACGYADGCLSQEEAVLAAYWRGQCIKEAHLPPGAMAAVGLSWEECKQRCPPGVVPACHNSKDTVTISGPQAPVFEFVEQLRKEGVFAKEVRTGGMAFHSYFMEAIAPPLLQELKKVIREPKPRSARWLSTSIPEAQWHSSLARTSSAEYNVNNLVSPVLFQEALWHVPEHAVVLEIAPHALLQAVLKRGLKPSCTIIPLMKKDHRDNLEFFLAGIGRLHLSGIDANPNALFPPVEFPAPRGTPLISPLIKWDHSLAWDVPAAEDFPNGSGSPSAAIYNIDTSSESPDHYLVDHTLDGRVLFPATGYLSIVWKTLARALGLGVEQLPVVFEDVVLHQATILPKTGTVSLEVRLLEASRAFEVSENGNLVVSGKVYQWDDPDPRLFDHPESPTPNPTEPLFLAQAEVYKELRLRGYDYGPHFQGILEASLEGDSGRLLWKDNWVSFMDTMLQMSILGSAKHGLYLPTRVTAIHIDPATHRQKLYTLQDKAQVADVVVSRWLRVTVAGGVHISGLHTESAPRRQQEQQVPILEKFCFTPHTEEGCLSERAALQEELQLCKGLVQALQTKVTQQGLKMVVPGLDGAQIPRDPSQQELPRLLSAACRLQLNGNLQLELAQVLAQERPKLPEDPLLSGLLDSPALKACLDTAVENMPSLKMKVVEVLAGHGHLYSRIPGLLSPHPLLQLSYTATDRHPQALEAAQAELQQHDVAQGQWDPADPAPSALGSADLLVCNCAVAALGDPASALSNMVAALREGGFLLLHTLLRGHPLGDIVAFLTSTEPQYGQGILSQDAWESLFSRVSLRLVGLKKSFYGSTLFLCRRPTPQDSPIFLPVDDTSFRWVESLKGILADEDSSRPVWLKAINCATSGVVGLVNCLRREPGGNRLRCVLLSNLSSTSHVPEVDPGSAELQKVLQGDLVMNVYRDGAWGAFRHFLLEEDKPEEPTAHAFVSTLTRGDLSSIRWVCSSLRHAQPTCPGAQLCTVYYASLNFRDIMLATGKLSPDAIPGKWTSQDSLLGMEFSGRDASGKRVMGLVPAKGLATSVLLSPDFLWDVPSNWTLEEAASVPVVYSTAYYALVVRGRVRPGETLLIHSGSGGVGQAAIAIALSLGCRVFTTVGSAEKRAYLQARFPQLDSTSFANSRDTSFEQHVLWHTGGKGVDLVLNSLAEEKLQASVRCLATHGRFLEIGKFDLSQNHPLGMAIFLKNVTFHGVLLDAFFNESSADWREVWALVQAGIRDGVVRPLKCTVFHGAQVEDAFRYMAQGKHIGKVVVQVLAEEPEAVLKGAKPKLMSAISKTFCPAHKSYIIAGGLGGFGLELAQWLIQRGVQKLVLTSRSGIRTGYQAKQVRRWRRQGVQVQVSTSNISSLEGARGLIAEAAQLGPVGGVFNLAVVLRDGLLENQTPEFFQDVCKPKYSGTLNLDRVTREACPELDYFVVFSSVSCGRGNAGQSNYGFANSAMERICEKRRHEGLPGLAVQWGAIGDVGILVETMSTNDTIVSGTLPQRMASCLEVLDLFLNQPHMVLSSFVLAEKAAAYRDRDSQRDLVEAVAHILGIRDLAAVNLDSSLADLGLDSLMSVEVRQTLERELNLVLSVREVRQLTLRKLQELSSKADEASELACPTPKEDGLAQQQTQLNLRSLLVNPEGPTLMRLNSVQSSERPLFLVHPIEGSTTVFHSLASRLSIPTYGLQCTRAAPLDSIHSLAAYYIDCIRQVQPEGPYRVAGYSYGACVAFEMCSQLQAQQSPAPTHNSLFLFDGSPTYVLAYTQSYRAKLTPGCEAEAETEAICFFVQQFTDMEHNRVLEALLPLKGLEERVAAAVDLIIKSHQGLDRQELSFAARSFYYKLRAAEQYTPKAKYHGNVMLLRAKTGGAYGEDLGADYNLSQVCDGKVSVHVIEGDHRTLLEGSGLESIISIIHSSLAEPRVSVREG

**Q.** Which inhibition at 100 µM does the source give for `Cc1ccc(NS(=O)(=O)c2cccc(C#N)c2)cc1C(=O)N1CCC(c2ccc(C#N)cc2)CC1` [Example 47, 3-cyano-N-[3-[4-(4-cyanophenyl)piperidine-1-carbonyl]-4-methyl-phenyl]benzenesulfonamide] here?
**A.** Its inhibition at 100 µM is 85%.

**Q.** How did the inhibition at 100 µM turn out when `Cc1ccc(C(=O)N2CCC(c3ccc(C#N)cc3)CC2)cc1NS(=O)(=O)c1ccc(N2CCOCC2)nc1` [Example 93, N-[5-[4-(4-cyanophenyl)piperidine-1-carbonyl]-2-methyl-phenyl]-6-morpholin-4-yl-pyridine-3-sulfonamide] was run?
**A.** The inhibition at 100 µM was 79%.

**Q.** For `Cc1ccc(C(=O)N2CCC(c3ccc(C#N)cc3)CC2)cc1NS(=O)(=O)CC(=O)N(C)C` [Example 91, 2-[[5-[4-(4-cyanophenyl)piperidine-1-carbonyl]-2-methyl-phenyl]sulfamoyl]-N,N-dimethyl-acetamide], which inhibition at 100 µM is on record?
**A.** The inhibition at 100 µM was 80%.

**Q.** `Cc1ccc(C(=O)N2CCC(c3ccc(C(=O)c4nccs4)cc3)CC2)cc1NS(C)(=O)=O` [Example 188, N-[2-methyl-5-[4-[4-(1,3-thiazole-2-carbonyl)phenyl]piperidine-1-carbonyl]phenyl]methanesulfonamide] was tested. Which inhibition at 100 µM did it give?
**A.** Its inhibition at 100 µM is 110%.

**Q.** Which inhibition at 100 µM does the source give for `Cc1ccc(C(=O)N2CCC(c3ccc(C#N)cc3)CC2)cc1NS(=O)(=O)c1ccc(NC(C)C)nc1` [Example 99, N-[5-[4-(4-cyanophenyl)piperidine-1-carbonyl]-2-methyl-phenyl]-6-(propan-2-ylamino)pyridine-3-sulfonamide] here?
**A.** The inhibition at 100 µM was 92%.

**Q.** For `Cc1ccc(C(=O)N2CCC(c3ccc(C#N)cc3)CC2)cc1NS(=O)(=O)C(C)CO` (stereo not shown) [Example 138, N-[5-[4-(4-cyanophenyl)piperidine-1-carbonyl]-2-methyl-phenyl]-1-hydroxy-propane-2-sulfonamide], which inhibition at 100 µM is on record?
**A.** Its inhibition at 100 µM is 100%.

**Q.** How did the inhibition at 100 µM turn out when `Cc1ccc(C(=O)N2CCC(c3ccc(-c4nnco4)cc3)CC2)cc1NS(C)(=O)=O` [Example 168, N-[2-methyl-5-[4-[4-(1,3,4-oxadiazol-2-yl)phenyl]piperidine-1-carbonyl]phenyl]methanesulfonamide] was run?
**A.** The inhibition at 100 µM was 75%.

**Q.** For `CCS(=O)(=O)N1CCC(S(=O)(=O)Nc2cc(C(=O)N3CCC(c4ccc(C#N)cc4)CC3)ccc2C)CC1` [Example 122, N-[5-[4-(4-cyanophenyl)piperidine-1-carbonyl]-2-methyl-phenyl]-1-ethylsulfonyl-piperidine-4-sulfonamide], which inhibition at 100 µM is on record?
**A.** The inhibition at 100 µM was 98%.

**Q.** How did the inhibition at 100 µM turn out when `Cc1ccc(C(=O)N2CCC(c3ccc(C#N)cc3)CC2)cc1NS(=O)(=O)CCCO` [Example 205, N-[5-[4-(4-cyanophenyl)piperidine-1-carbonyl]-2-methylphenyl]-3-hydroxypropane-1-sulfonamide] was run?
**A.** Its inhibition at 100 µM is 75%.

**Q.** For `Cc1ccc(C(=O)N2CCC(c3ccc(C#N)cc3)CC2)cc1NS(=O)(=O)Cc1ccc(F)cc1F` [Example 61, N-[5-[4-(4-cyanophenyl)piperidine-1-carbonyl]-2-methyl-phenyl]-1-(2,4-difluorophenyl)methanesulfonamide], which inhibition at 100 µM is on record?
**A.** The inhibition at 100 µM was 93%.

**Q.** With `Cc1ccc(C(=O)N2CCC(c3ccc(C#N)cc3)CC2)cc1NS(=O)(=O)C1CCCCC1` [Example 17, N-[5-[4-(4-cyanophenyl)piperidine-1-carbonyl]-2-methyl-phenyl]cyclohexanesulfonamide] as the compound, how does the inhibition at 100 µM read?
**A.** Its inhibition at 100 µM is 94%.

**Q.** How did the inhibition at 100 µM turn out when `Cc1ccc(C(=O)N2CCC(c3ccc(C#N)cc3)CC2)cc1NS(C)(=O)=O` [Example 1, N-(5-(4-(4-cyanophenyl)piperidine-1-carbonyl)-2-methylphenyl)methanesulfonamide] was run?
**A.** Its inhibition at 100 µM is 86%.

**Q.** `Cc1ccc(NS(=O)(=O)CC2CCCCC2)cc1C(=O)N1CCC(c2ccc(C#N)cc2)CC1` [Example 41, N-[3-[4-(4-cyanophenyl)piperidine-1-carbonyl]-4-methyl-phenyl]-1-cyclohexyl-methanesulfonamide] was tested. Which inhibition at 100 µM did it give?
**A.** Its inhibition at 100 µM is 96%.

**Q.** How did the inhibition at 100 µM turn out when `CSCc1ccc(C(=O)N2CCC(c3ccc(C#N)cc3)CC2)cc1NS(C)(=O)=O` [Example 176, N-[5-[4-(4-cyanophenyl)piperidine-1-carbonyl]-2-(methylsulfanylmethyl)phenyl]methanesulfonamide] was run?
**A.** The inhibition at 100 µM was 78%.

**Q.** `Cc1ccc(C(=O)N2CCC(c3ccc(C#N)cc3)CC2)cc1NS(=O)(=O)CCC(=O)O` [Example 151, 3-[[5-[4-(4-cyanophenyl)piperidine-1-carbonyl]-2-methyl-phenyl]sulfamoyl]propanoic acid] was tested. Which inhibition at 100 µM did it give?
**A.** Its inhibition at 100 µM is 81%.

same assay, conditions: compounds excluded from the claims by proviso

**Q.** With `Cc1ccc(C(=O)N2CCC(c3ccc(C#N)cc3)CC2)cc1NS(=O)(=O)c1ccccc1C(=O)O` [2-[[5-[4-(4-cyanophenyl)piperidine-1-carbonyl]-2-methylphenyl]sulfamoyl]benzoic acid] as the compound, how does the “IC50s in the range of about 0.001 μM to about 30 μM” value (“IC50s in the range” for short) read?
**A.** The value was “do not have IC50s in the range of about 0.001 μM to about 30 μM”.

**Q.** `C[S+]([O-])c1ccc(C(=O)N2CCC(c3ccc(C#N)cc3)CC2)cc1NS(C)(=O)=O` (stereo not shown) [N-[5-[4-(4-cyanophenyl)piperidine-1-carbonyl]-2-methylsulfinylphenyl]methanesulfonamide] was tested. Which “IC50s in the range” value did it give?
**A.** Its value is “do not have IC50s in the range of about 0.001 μM to about 30 μM”.

**Q.** How did the “IC50s in the range” value turn out when `N#Cc1ccc(C2CCN(C(=O)c3ccc(OC(F)(F)F)c(NS(=O)(=O)Cc4ccccc4)c3)CC2)cc1` [N-[5-[4-(4-cyanophenyl)piperidine-1-carbonyl]-2-(trifluoromethoxy)phenyl]-1-phenylmethanesulfonamide] was run?
**A.** Its value is “do not have IC50s in the range of about 0.001 μM to about 30 μM”.

**Q.** `Cc1ccc(C(=O)N2CCC(c3cccc(F)c3)CC2)cc1NS(C)(=O)=O` [N-[5-[4-(3-fluorophenyl)piperidine-1-carbonyl]-2-methylphenyl]methanesulfonamide] was tested. Which “IC50s in the range” value did it give?
**A.** Its value is “do not have IC50s in the range of about 0.001 μM to about 30 μM”.
